Source: patent US10870647B2, “Imidazopyridine derivative, method for preparing same, and pharmaceutical composition containing same as active ingredient for preventing or treating cancer” (DAEGU-GYEONGBUK MEDICAL INNOVATION FOUNDATION, priority 2016, dated 2020)

Assays:
Test in all cases: Kinase selectivity, scanMAX Kinase assay panel (DiscoverX), % control at 1 uM
Type in all cases: binding
[1] = target: T1, scanMAX Kinase assay panel (Homo sapiens, UniProt P29320); conditions: EPHA3; 1 uM; read-out: Percent Control (%)
T1 construct: purchased DiscoverX
T1 sequence (P29320 21-983): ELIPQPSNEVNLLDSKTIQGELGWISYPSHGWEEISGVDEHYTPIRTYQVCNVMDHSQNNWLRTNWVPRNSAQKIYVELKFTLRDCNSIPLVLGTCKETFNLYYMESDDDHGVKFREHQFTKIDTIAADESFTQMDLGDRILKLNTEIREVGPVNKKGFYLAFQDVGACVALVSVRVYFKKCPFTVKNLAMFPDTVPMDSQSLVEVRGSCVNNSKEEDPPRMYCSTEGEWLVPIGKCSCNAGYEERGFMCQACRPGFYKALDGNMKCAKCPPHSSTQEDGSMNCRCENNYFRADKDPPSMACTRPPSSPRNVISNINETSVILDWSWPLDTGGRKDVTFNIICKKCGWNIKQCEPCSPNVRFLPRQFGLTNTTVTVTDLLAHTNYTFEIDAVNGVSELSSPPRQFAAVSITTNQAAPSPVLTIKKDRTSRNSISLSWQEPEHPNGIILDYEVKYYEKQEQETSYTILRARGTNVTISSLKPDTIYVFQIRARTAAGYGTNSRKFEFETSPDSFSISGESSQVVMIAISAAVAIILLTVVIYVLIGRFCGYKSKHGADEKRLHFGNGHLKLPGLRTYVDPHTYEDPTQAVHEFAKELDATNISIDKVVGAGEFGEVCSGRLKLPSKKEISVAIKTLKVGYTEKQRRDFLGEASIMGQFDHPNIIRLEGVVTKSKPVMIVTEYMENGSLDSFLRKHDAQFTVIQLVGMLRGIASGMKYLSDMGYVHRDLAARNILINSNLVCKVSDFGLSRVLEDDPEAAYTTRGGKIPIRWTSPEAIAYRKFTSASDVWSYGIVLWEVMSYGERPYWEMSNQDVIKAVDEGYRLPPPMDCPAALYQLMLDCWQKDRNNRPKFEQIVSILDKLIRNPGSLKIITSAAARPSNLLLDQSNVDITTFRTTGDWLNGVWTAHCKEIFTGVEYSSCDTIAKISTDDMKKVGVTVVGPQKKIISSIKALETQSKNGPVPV
Summary of the method: (§1)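 Single-point screen at 1 uM compound in DMSO. Lower % control means stronger inhibition, with the cutoff for activity set at <35%.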

[2] = target: T2, scanMAX Kinase assay panel (Homo sapiens, UniProt P00533, T790M); conditions: EGFR (T790M); 1 uM; read-out: Percent Control (%)
T2 construct: purchased DiscoverX
T2 sequence (P00533 25-1210 T790M): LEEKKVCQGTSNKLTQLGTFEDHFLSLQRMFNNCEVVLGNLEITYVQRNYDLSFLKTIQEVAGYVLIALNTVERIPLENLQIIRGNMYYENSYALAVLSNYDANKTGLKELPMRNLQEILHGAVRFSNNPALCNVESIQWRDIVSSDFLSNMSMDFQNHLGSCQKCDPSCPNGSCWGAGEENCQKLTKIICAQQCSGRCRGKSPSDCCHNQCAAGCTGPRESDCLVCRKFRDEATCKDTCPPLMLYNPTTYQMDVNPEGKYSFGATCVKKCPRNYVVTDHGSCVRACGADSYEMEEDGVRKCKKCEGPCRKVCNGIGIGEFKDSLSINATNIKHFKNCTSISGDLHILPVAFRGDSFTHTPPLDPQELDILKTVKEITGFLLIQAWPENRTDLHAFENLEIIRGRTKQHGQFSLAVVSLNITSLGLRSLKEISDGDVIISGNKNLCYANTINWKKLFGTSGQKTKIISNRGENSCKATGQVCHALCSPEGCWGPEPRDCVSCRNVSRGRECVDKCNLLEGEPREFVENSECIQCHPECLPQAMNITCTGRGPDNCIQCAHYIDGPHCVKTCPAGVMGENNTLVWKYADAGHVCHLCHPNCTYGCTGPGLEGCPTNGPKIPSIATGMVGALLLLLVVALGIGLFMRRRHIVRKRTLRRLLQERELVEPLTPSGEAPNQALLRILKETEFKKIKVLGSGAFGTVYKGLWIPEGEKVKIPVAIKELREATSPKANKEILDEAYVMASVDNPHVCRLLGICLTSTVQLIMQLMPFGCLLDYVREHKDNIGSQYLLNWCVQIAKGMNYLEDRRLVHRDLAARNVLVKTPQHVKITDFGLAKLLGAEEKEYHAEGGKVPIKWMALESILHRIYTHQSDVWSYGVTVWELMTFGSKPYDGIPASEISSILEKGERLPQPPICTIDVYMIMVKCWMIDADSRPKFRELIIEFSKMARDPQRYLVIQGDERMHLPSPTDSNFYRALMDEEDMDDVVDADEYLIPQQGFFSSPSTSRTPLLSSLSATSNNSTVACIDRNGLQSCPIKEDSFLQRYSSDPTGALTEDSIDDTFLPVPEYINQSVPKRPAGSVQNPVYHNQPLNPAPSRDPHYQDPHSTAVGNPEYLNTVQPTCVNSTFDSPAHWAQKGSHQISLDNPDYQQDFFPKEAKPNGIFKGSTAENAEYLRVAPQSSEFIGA
Summary of the method: as §1

[3] = target: T3, scanMAX Kinase assay panel (Homo sapiens, UniProt Q15835); conditions: GRK1; 1 uM; read-out: Percent Control (%)
T3 construct: purchased DiscoverX
T3 sequence (Q15835 1-563): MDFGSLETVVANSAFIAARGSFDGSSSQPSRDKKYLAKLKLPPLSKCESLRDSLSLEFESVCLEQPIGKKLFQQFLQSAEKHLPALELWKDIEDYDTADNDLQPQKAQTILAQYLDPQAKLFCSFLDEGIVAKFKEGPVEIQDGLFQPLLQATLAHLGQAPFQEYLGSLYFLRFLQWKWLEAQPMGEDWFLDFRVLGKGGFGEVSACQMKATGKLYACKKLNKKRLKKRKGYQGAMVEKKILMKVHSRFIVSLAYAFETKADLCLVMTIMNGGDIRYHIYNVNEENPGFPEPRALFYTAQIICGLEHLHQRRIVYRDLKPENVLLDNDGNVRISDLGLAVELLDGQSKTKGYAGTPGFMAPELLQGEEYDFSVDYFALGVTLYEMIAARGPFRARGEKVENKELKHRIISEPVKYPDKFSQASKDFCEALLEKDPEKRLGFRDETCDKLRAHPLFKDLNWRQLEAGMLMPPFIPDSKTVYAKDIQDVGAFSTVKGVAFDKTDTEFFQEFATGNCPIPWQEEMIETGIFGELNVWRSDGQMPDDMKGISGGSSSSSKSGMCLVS
Summary of the method: as §1

[4] = target: T4, scanMAX Kinase assay panel (Homo sapiens, UniProt P36888, R834Q); conditions: FLT3 (R834Q); 1 uM; read-out: Percent Control (%)
T4 construct: purchased DiscoverX
T4 sequence (P36888 27-993 R834Q): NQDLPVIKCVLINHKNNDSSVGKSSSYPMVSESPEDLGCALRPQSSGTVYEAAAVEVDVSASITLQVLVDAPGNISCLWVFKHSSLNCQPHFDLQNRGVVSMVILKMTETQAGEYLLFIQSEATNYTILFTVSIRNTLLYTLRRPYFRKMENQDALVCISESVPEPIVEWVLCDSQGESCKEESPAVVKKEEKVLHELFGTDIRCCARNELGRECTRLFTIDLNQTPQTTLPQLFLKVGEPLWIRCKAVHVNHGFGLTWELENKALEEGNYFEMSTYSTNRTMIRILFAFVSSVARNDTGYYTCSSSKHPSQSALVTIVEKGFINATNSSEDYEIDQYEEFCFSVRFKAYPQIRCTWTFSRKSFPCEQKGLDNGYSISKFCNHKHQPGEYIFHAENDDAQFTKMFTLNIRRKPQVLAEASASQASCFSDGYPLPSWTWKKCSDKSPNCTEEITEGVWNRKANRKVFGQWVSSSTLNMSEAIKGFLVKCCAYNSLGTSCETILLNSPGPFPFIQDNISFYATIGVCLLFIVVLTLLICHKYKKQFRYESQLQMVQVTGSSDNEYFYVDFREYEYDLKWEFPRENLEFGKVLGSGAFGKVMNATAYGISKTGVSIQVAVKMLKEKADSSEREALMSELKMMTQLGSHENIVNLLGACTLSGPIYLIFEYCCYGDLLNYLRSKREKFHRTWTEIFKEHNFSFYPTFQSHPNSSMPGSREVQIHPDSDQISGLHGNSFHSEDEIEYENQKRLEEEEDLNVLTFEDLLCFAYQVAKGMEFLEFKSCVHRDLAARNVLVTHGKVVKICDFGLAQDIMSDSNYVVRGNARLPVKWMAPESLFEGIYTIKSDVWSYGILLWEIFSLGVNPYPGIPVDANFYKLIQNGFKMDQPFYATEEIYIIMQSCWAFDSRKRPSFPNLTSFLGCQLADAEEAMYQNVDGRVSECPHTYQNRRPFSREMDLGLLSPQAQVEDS
Summary of the method: as §1

[5] = target: T5, scanMAX Kinase assay panel (Homo sapiens, UniProt P19784); conditions: CSNK2A2; 1 uM; read-out: Percent Control (%)
T5 construct: purchased DiscoverX
T5 sequence (P19784 whole entry): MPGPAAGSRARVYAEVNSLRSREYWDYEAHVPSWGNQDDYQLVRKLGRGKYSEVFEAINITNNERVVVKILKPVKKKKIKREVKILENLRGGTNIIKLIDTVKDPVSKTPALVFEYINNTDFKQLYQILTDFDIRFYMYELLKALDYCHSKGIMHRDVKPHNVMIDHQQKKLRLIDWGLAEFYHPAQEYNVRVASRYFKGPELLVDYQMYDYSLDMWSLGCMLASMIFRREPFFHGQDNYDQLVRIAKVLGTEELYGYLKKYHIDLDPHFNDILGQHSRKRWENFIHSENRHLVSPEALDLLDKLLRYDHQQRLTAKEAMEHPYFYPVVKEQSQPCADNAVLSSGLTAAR
Summary of the method: as §1

| Structure (SMILES) | remaining binding at 1 µM [1] [%] | remaining binding at 1 µM [2] [%] | remaining binding at 1 µM [3] [%] | remaining binding at 1 µM [4] [%] | remaining binding at 1 µM [5] [%] |
| --- | --- | --- | --- | --- | --- |
| Cc1ccc(NC(=O)C2(C(=O)Nc3ccc(F)cc3)CC2)cc1C#Cc1cnc2c(Nc3cnn(C(C)C)c3)cccn12 [Example 78] | 76 | 100 | 99 | 100 | 100 |
| Cc1cn(-c2cc(NC(=O)c3ccc(C)c(C#Cc4cnc5c(Nc6cnn(C)c6)cccn45)c3)cc(C(F)(F)F)c2)cn1 [Example 12, 4-methyl-N-(3-(4-methyl-1H-imidazol-1-yl)-5-(trifluoromethyl)phenyl)-3-((8-((1-methyl-1H-pyrazol-4-yl)amino)imidazo[1,2-a]pyridin-3-yl)ethynyl)benzamide] | 27 | 75 | 85 | 62 | 98 |
| Cc1ccc(C(=O)Nc2ccc(CN3CCN(C)CC3)c(C(F)(F)F)c2)cc1C#Cc1cnc2c(Nc3cnn(C)c3)cccn12 [Example 1, 4-methyl-3-((8-((1-methyl-1H-pyrazol-4-yl)amino)imidazo[1,2-a]pyridin-3-yl)ethynyl)-N-(4-((4-methylpiperazin-1-yl)methyl)-3-(trifluoromethyl)phenyl)benzamide] | 19 | 10 | 65 | 3 | 56 |
